From US20230270815A1, “Apoptosis inducing peptide (SSTP1)” (Rajiv Gandhi Centre For Biotechnology, priority 2020, published 2023) come the findings set out here.

The structures appear in SMILES notation. “Also recorded” adds a separate entry of the source. Residues, ends and D or L forms follow the SMILES beside them.

The test system of series [1] is JAK/STAT, JNK/AP1, MAPK and AKT phosphorylation in HSC-4 cells. The series can be described thus: Western blot of JAK/STAT, JNK/AP1, MAPK and PI3K pathway phosphorylation. Type of series: cell-based. The note with it: HSC-4, 10 μM. The text has this: a. […] The phosphorylated forms of STAT1 (Y701) and STAT3 (Y705) were probed for western blot to see the JAK/STAT pathway activation. Another phosphorylation of STAT3 at S727, which is reported to be independent of JAK activation, was also probed. […] All these biochemical analyses point out that SSTP1 preferentially down-regulates JAK-mediated-phosphorylation of STATs and MAPK, simultaneously up-regulating phosphorylation of JNK1 and cJUN. b.
A general note: In western blotting, separated proteins are transferred to a membrane and probed.

Series [2] has as its system six cancer cell lines of different origin. The series can be described thus: MTT assay in six cancer cell lines with up-regulated IL6Rα. Type of series: cell-based. Conditions: 10 μM SSTP1, all six cell lines. As to the method: (§1) Further, the growth inhibitory property of SSTP1 on different cell lines with different levels of IL6Rα was investigated. Six cancer cell lines of different origin were evaluated for their IL6Rα expression in comparison to HSC-4 by western blot (FIGS. 8a and b). […] Since many of the bioactive peptides induce hemolysis, we evaluated the hemolysis induced by SSTP1 (FIG. 8d).
In general terms: Tetrazolium dyes change colour on reduction, which living cells bring about.

The target in series [3] is T1, IL6Rα (Homo sapiens, UniProt P08887).
T1 sequence (P08887 20-468): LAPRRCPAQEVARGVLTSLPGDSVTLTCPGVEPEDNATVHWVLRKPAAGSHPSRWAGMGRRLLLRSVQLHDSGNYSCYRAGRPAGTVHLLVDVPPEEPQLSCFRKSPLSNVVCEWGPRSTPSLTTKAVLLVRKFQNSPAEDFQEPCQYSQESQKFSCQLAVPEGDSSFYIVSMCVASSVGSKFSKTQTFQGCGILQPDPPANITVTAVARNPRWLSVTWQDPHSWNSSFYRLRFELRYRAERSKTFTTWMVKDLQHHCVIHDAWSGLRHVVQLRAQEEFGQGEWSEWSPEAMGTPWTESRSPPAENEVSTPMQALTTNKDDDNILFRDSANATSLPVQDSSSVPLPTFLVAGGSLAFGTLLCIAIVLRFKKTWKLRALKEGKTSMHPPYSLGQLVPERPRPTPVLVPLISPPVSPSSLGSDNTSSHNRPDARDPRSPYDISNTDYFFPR
In words: Co-localization of peptide and IL6Rα on cell membrane (Pearson's coefficient). Type of series: cell-based. Also on record: fixed and probed without permeabilization using mouse IL6Rα; endogenous in cells; host or cells: HSC-4. The note with it: HSC-4, 10 μM, 30 minutes. The text has this:
To check whether SSTP1 activates the IL6/IL6R pathway by binding to IL6Rα, we checked the co-localization of SSTP1 and IL6Rα on cell membrane. […] To visualize the IL6R-dependent SSTP1 endosomal up-take, we used an early endosome marker, Rab5C. We observed the co-existence of SSTP1 and IL6Rα within early endosomes, marked by Rab5C (FIGS. 4c and d). […] The physical interaction of SSTP1 and IL6Rα was also ascertained using FRET analysis (FIG. 4f). FIG. 4 illustrates SSTP1 interacts with IL6Rα and mediates the uptake of SSTP1 specifically FIG. 4(a) discusses HSC-4 cells were treated with Biotin labelled SSTP1 or SSTP2 (10 μM) for 30 minutes and then fixed and probed without permeabilization using mouse IL6Rα. 4(b) illustrates the co-localization of SSTP1 or SSTP2 to IL6Rα was analyzed for 11 cells and the Pearson's correlation was plotted. 4(c) illustrates cells were treated as in panel (a) and fixed and permeabilized to probe for IL6Rα, SSTP1 and Rab5c. The arrow mark indicates the co-localization. The scales bars represent 4 μm. 4(d) illustrates the Mander's overlap in SSTP1 foci were quantified for 10 cells. The average values for each cell is plotted. 4(e) illustrates the pull down assay using SSTP1-biotin and probed for IL6Rα. 4(f) illustrates the FRET analysis to show the SSTP1 binding to IL6Rα.

The target of series [4] is T1, IL6Rα. In words: Pull-down assay using biotin-labelled peptides. Type of series: binding. An excerpt:
To check whether SSTP1 activates the IL6/IL6R pathway by binding to IL6Rα, we checked the co-localization of SSTP1 and IL6Rα on cell membrane. […] To visualize the IL6R-dependent SSTP1 endosomal up-take, we used an early endosome marker, Rab5C. We observed the co-existence of SSTP1 and IL6Rα within early endosomes, marked by Rab5C (FIGS. 4c and d). […] The physical interaction of SSTP1 and IL6Rα was also ascertained using FRET analysis (FIG. 4f).
FIG. 4 illustrates SSTP1 interacts with IL6Rα and mediates the uptake of SSTP1 specifically FIG. 4(a) discusses HSC-4 cells were treated with Biotin labelled SSTP1 or SSTP2 (10 μM) for 30 minutes and then fixed and probed without permeabilization using mouse IL6Rα. 4(b) illustrates the co-localization of SSTP1 or SSTP2 to IL6Rα was analyzed for 11 cells and the Pearson's correlation was plotted. 4(c) illustrates cells were treated as in panel (a) and fixed and permeabilized to probe for IL6Rα, SSTP1 and Rab5c. The arrow mark indicates the co-localization. The scales bars represent 4 μm. 4(d) illustrates the Mander's overlap in SSTP1 foci were quantified for 10 cells. The average values for each cell is plotted. 4(e) illustrates the pull down assay using SSTP1-biotin and probed for IL6Rα. 4(f) illustrates the FRET analysis to show the SSTP1 binding to IL6Rα.

Series [5] relates to HSC-4 cells. The procedure: Evaluation of the cytotoxicity of SSTP1 and SSTP2 was performed using MTT assay in an oral cancer cell line, HSC-4 at various concentrations of the respective peptides.
A further series has as its system MDA-MB-231 cells. Conditions: read-out: IC50 growth inhibition (MTT).
Series [6] relates to HSC-4 cells. The series can be described thus: Annexin/PI staining with FACS analysis. Type of series: cell-based. The note with it: HSC-4, 10 μM, 22 h. As to the method:
To check whether the cytotoxic effect is due to apoptosis, Annexin/PI staining was performed, with the population with Annexin alone (early apoptotic), Annexin/PI dual stained (late apoptotic) and PI alone (dead cells) were quantified by FACS.
For orientation: In flow cytometry, cells or beads pass a laser one at a time.

In a further series the test system is AP1. In words: Luciferase AP1 reporter assay. Type of series: cell-based. The note with it: in comparison to SSTP2.
For the next series, the system named is human leukocytes. The series can be described thus: Trypan blue exclusion of leukocytes. The note with it: 4.5 μM, 48 h.
The test system of series [7] is Caspase 3, 7, 8, 9 and PARP in HSC-4 cells. The series can be described thus: Western blot for caspase and PARP cleavage. Type of series: cell-based. The note with it: HSC-4, 10 μM.
Another series relates to human RBCs. The series can be described thus: Hemolysis of human RBCs. The note with it: 5 μM. As to the method:
as §1

Series [8] deals with STAT, JNK and cJUN phosphorylation in HSC-4 cells. In words: Western blot of HSC-4 cells treated with SSTP1 and inhibitors. Type of series: cell-based. Conditions: HSC-4, SSTP1 10 μM, SC144 40 μM, Anti-IL6Rα 10 μg/ml, 30 minutes. The text has this: (§2) a. Inhibitors for IL6 (LMT-28), JAK (Ruxolitinib), gp130 (SC-144) and JNK (SP600125) as well as Anti-IL6Rα were used to check the dispensability of each of these molecules in inducing apoptosis by SSTP1. […] The SSTP1-mediated up-regulation of pJNK was not appreciably affected by either of these inhibitors, while pcJUN up-regulation was inhibited by only SP600125 (FIGS. 7a and b). […] LMT28 binds to the interface between IL6 and gp130 to block the activity of IL6. Since SSTP1 binds to a different site on the IL6/IL6Rα/gp130 complex, i.e., the interface of IL6 and IL6Rα, there is no competitive inhibition when we add LMT28. b.

For series [9], the system named is HSC-4 cells. In words: MTT assay of SSTP1-induced growth inhibition with or without inhibitors. Type of series: cell-based. The note with it: 4 h, SSTP1 10 μM; LMT-28 60 μM, Anti-IL6Rα 10 μg/ml, SC144 40 μM.
From the text: as §2

On to `CC[C@H](C)[C@H](NC(=O)[C@H](CC(C)C)NC(=O)[C@H](CC(C)C)NC(=O)[C@@H]1CCCN1C(=O)[C@H](CC(C)C)NC(=O)[C@@H](N)Cc1ccccc1)C(=O)N[C@@H](CO)C(=O)N[C@@H](C)C(=O)N[C@@H](CC(C)C)C(=O)N[C@H](C(=O)N[C@@H](CO)C(=O)N[C@@H](CC(C)C)C(=O)N[C@@H](Cc1ccccc1)C(=O)N1CCC[C@H]1C(=O)N[C@@H](CCCCN)C(=O)N[C@@H](CC(C)C)C(=O)NCC(=O)N[C@@H](CCCCN)C(N)=O)[C@@H](C)O` [SSTP1, FLPLLISALTSLFPKLGK] (H-FLPLLISALTSLFPKLGK-NH2), for which, in series [1], the “STAT1 (Y701) phosphorylation” value was “did not affect STAT1 (Y701) phosphorylation significantly”, the “STAT3 (Y705) phosphorylation” value was “drastically reduced”, the pJNK2 levels result is given as “up-regulated” and the “pSTAT3(S727)” value is recorded as “slight up-regulation”. In series [1], the pc-JUN level result is “increased level” and the “phosphorylation of JNK1” value is listed as “markedly up-regulated”. Also, the “growth inhibitory potential compared to HSC-4” value in series [2] is given as “drastic increase in the growth inhibitory potential”. In addition, the “co-localization to IL6Rα on cell surface” value at IL6Rα [3] is given as “several foci on the cell surface with co-localization”. For the same compound, the “physical interaction with IL6Rα (pull-down)” value at IL6Rα [4] is reported as “stronger than that of SSTP2”. The IC50 (usually the midpoint of a concentration-inhibition curve) with HSC-4 cells [5] (read-out: IC50 growth inhibition (MTT), HSC-4 cells) was determined as 10.2 µM. Moreover, the IC50 in the series with MDA-MB-231 cells worked out at 4.5 µM. The “increase in early apoptotic population” value with HSC-4 cells [6] worked out at 3 fold. Also, in the series with AP1, the “AP1 activity (luciferase reporter)” value was “activated”. Also, the viability of leukocytes entry in the series with human leukocytes was “did not affect the viability; also recorded: no adverse effect; also recorded: Illustrates SSTP1 do not induce cell death in human leukocytes”. Also, in series [7], the “Caspase 8 cleavage” value is reported as “unaffected”; the “cleavage of Caspase 3, 7 and 9” value is on record as “active cleavage”; the “time to PARP cleavage” value is at most 16 h. The hemolysis with human RBCs was found to be 0.25%.
As for `CC[C@H](C)[C@H](NC(=O)[C@H](CCCNC(=N)N)NC(=O)[C@H](CCCNC(=N)N)NC(=O)[C@@H]1CCCN1C(=O)[C@H](CC(C)C)NC(=O)[C@@H](N)Cc1ccccc1)C(=O)N[C@@H](CO)C(=O)N[C@@H](C)C(=O)N[C@@H](CCCNC(=N)N)C(=O)N[C@H](C(=O)N[C@@H](CO)C(=O)N[C@@H](CC(C)C)C(=O)N[C@@H](Cc1ccccc1)C(=O)N1CCC[C@H]1C(=O)N[C@@H](CCCCN)C(=O)N[C@@H](CCCNC(=N)N)C(=O)NCC(=O)N[C@@H](CCCCN)C(N)=O)[C@@H](C)O` [SSTP2, FLPRRISARTSLFPKRGK-NH2, reference compound] (H-FLPRRISARTSLFPKRGK-NH2), the “cytotoxicity (MTT), result in words” value with HSC-4 cells [5] is “ineffective in inducing cytotoxicity”.
Turning to `O=C(NNc1nc2cc(F)ccc2n2cccc12)c1cnccn1` [SC144], in series [8], the “phosphorylation of STATs, JNK and cJUN” value is “significantly reduced”. Further, the “effect on SSTP1-induced growth inhibition” value in the series on HSC-4 cells [9] is “significantly inhibited”.
